Literature values as cited in patent US20240344040A1, “PROKARYOTIC AND EUKARYOTIC CELLS WITH BIOSYNTHESIZED SULFOTYROSINE FOR GENETIC INCORPORATION” (William Marsh Rice University, priority 2023, published 2024).

Conditions: cells incubated with 1 mM pThr

intracellular detection: cannot be detected intracellularly
SMILES: C[C@@H](OP(=O)(O)O)[C@H](N)C(=O)O [phosphothreonine]
